Measurements published in ChEMBL document CHEMBL1201862, “PubChem BioAssay data set” (2004).
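96-well plates; 48 h exposure; 5 concentrations. Endpoints by linear interpolation between flanking doses. Not reached: highest tested concentration assigned. The concentration for 50% growth inhibition is given as GI50.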 Active and inactive are the calls of the source. Rule as the data show it: active = GI50 up to about 1.1 µM and inactive = higher.

What was measured:
Experiment in all cases: growth of human tumour cells (NCI), 48 h
A498 = tested on: A498
BT-549 = tested on: BT-549
CAKI-1 = tested on: CAKI-1
CCRF-CEM = tested on: CCRF-CEM
COLO 205 = tested on: COLO 205
HCT-15 = tested on: HCT-15
HOP-62 = tested on: HOP-62
K562 = tested on: K562
MDA-MB-231 = tested on: MDA-MB-231
Malme-3M = tested on: Malme-3M
NCI-H226 = tested on: NCI-H226
NCI-H23 = tested on: NCI-H23
NCI/ADR-RES = tested on: NCI/ADR-RES
OVCAR-4 = tested on: OVCAR-4
SN12C = tested on: SN12C
SNB-75 = tested on: SNB-75
T47D = tested on: T47D
UACC-62 = tested on: UACC-62
OVCAR-3 = tested on: OVCAR-3

| SMILES | GI50 (A498) | GI50 (BT-549) | GI50 (CAKI-1) | GI50 (CCRF-CEM) | GI50 (COLO 205) | GI50 (HCT-15) | GI50 (HOP-62) | GI50 (K562) | GI50 (MDA-MB-231) | GI50 (Malme-3M) | GI50 (NCI-H226) | GI50 (NCI-H23) | GI50 (NCI/ADR-RES) | GI50 (OVCAR-4) | GI50 (SN12C) | GI50 (SNB-75) | GI50 (T47D) | GI50 (UACC-62) | GI50 (OVCAR-3) |
| --- | --- | --- | --- | --- | --- | --- | --- | --- | --- | --- | --- | --- | --- | --- | --- | --- | --- | --- | --- |
| CO/C(=N\N=C\c1ccc(OC)c(OC)c1)c1ccncc1 | > 10 µM (inactive) | > 10 µM (inactive) | > 10 µM (inactive) | > 10 µM (inactive) | > 10 µM (inactive) | > 10 µM | > 10 µM (inactive) | > 10 µM (inactive) | > 10 µM (inactive) | > 10 µM (inactive) | > 10 µM (inactive) | > 10 µM (inactive) | > 10 µM (inactive) | > 10 µM (inactive) | > 10 µM (inactive) | > 10 µM (inactive) | > 10 µM (inactive) | > 10 µM (inactive) | – |
| Cc1ccc(C2SCC(=O)N2c2ccc(-c3ccc(-n4c(-c5ccccc5)nc5ccccc5c4=O)cc3)cc2)cc1 (stereo not drawn) | > 100 µM (inactive) | 60.7 µM (inactive) | > 100 µM (inactive) | 34.9 µM (inactive) | 81.8 µM (inactive) | 62.5 µM | > 100 µM (inactive) | 64.7 µM (inactive) | 92.9 µM (inactive) | > 100 µM (inactive) | – | > 100 µM (inactive) | 91.4 µM (inactive) | 51.3 µM (inactive) | 86.5 µM (inactive) | – | 24.8 µM (inactive) | > 100 µM (inactive) | > 100 µM (inactive) |
| O=C(O)c1ccc(NNc2cc(=O)[nH]c(=O)[nH]2)cc1 | > 100 µM (inactive) | > 100 µM (inactive) | > 10 µM (inactive) | > 100 µM (inactive) | > 100 µM (inactive) | > 100 µM | > 100 µM (inactive) | > 100 µM (inactive) | > 100 µM (inactive) | > 100 µM (inactive) | > 100 µM (inactive) | > 100 µM (inactive) | > 100 µM (inactive) | > 100 µM (inactive) | > 100 µM (inactive) | 96.8 µM (inactive) | > 100 µM (inactive) | > 100 µM (inactive) | > 100 µM (inactive) |
| O=[N+]([O-])/C=C/c1cc(Cl)c(/C=C/[N+](=O)[O-])cc1Cl | 5.89 µM (inactive) | 1.57 µM (inactive) | 1.89 µM (inactive) | 0.8 µM (active) | 1.95 µM (inactive) | 1.01 µM | 3.77 µM (inactive) | – | 1.86 µM (inactive) | 1.91 µM (inactive) | 2.06 µM (inactive) | 2.61 µM (inactive) | 2.79 µM (inactive) | 1.87 µM (inactive) | 1.8 µM (inactive) | 13.8 µM (inactive) | 2.03 µM (inactive) | 1.91 µM (inactive) | 1.97 µM (inactive) |
| c1ccc(B2OCC(C3OB(c4ccccc4)OC4COB(c5ccccc5)OC43)O2)cc1 (stereo not drawn) | > 100 µM (inactive) | > 100 µM (inactive) | > 100 µM (inactive) | > 100 µM (inactive) | > 100 µM (inactive) | > 100 µM | > 100 µM (inactive) | > 100 µM (inactive) | > 100 µM (inactive) | > 100 µM (inactive) | – | > 100 µM (inactive) | > 100 µM (inactive) | > 100 µM (inactive) | > 100 µM (inactive) | > 100 µM (inactive) | > 100 µM (inactive) | > 100 µM (inactive) | > 100 µM (inactive) |
| CC(C)(O)C1CC[C@]2(C)[C@H]3CC[C@@H]4[C@@]5(C)CCCC(C)(C)[C@@H]5CC[C@@]4(C)[C@]3(C)CC[C@@H]12 (stereo partly drawn) | > 100 µM (inactive) | > 100 µM (inactive) | > 100 µM (inactive) | > 100 µM (inactive) | > 100 µM (inactive) | > 100 µM | > 100 µM (inactive) | – | > 100 µM (inactive) | > 100 µM (inactive) | – | > 100 µM (inactive) | > 100 µM (inactive) | > 100 µM (inactive) | > 100 µM (inactive) | – | > 100 µM (inactive) | > 100 µM (inactive) | > 100 µM (inactive) |
| O=C(/C=C/c1ccc(O)c(O)c1)OCCCOC(=O)/C=C/c1ccc(O)c(O)c1 | 52.5 µM (inactive) | 25.3 µM (inactive) | 34.4 µM (inactive) | 2.63 µM (inactive) | 28.9 µM (inactive) | 14 µM | 11.7 µM (inactive) | 22.3 µM (inactive) | 62.1 µM (inactive) | 43.3 µM (inactive) | – | 20.9 µM (inactive) | 28.4 µM (inactive) | 23.2 µM (inactive) | 28.1 µM (inactive) | 47.2 µM (inactive) | 35.6 µM (inactive) | 16.6 µM (inactive) | 10.8 µM (inactive) |
| Cc1ncc([N+](=O)[O-])n1CCN(C)C(=O)CCCn1ccnc1[N+](=O)[O-] | > 100 µM (inactive) | > 100 µM (inactive) | > 100 µM (inactive) | > 100 µM (inactive) | > 100 µM (inactive) | > 100 µM | > 100 µM (inactive) | > 100 µM (inactive) | > 100 µM (inactive) | > 100 µM (inactive) | > 100 µM (inactive) | > 100 µM (inactive) | > 100 µM (inactive) | > 100 µM (inactive) | > 100 µM (inactive) | > 100 µM (inactive) | > 100 µM (inactive) | > 100 µM (inactive) | > 100 µM (inactive) |
